# Assay results taken from PubChem BioAssay AID1918944 (Molecular Pharmacology Branch, DTP, NCI, 2023).
# pIC50: −log10 of the molar value. Several values for one entry are separate records, joined by “and”; a condition that tells them apart may be missing. Identical values can stand only once.
# System: 786-0 complex spheroid viability
# Assay: Anticancer human tumor 786-0 cell line growth inhibition;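 further: spheroids exposed to agents for seven days before readout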
# Settings: for viability, T/C: stronger effect = lower value
# How it was run: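 Drug combinations with the LSD1 inhibitor iadademstat tested on tumor cells co-cultured as spheroids with endothelial cells and mesenchymal stem cells. Concentrations descended in half-log increments from clinical Cmax or 10 microM.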
# [1] = curve of first compound, second compound 0.1 µM
# [2] = curve of first compound, second compound 0.316 µM
# [3] = curve of first compound, second compound 1 µM
# [4] = curve of first compound, second compound 3.16 µM
# [5] = curve of first compound, second compound 10 µM
# [6] = second compound 0.1 µM, first compound 0.00316 µM
# [7] = second compound 0.1 µM, first compound 0.01 µM
# [8] = second compound 0.1 µM, first compound 0.0316 µM
# [9] = second compound 0.1 µM, first compound 0.1 µM
# [10] = second compound 0.316 µM, first compound 0.00316 µM
# [11] = second compound 0.316 µM, first compound 0.01 µM
# [12] = second compound 0.316 µM, first compound 0.0316 µM
# [13] = second compound 0.316 µM, first compound 0.1 µM
# [14] = second compound 1 µM, first compound 0.00316 µM
# [15] = second compound 1 µM, first compound 0.01 µM
# [16] = second compound 1 µM, first compound 0.0316 µM
# [17] = second compound 1 µM, first compound 0.1 µM
# [18] = second compound 3.16 µM, first compound 0.00316 µM
# [19] = second compound 3.16 µM, first compound 0.01 µM
# [20] = second compound 3.16 µM, first compound 0.0316 µM
# [21] = second compound 3.16 µM, first compound 0.1 µM
# [22] = second compound 10 µM, first compound 0.00316 µM
# [23] = second compound 10 µM, first compound 0.01 µM
# [24] = second compound 10 µM, first compound 0.0316 µM
# [25] = second compound 10 µM, first compound 0.1 µM
structure (smiles),measurement,setting,value
Nc1ccccc1NC(=O)c1ccc(CNC(=O)OCc2cccnc2)cc1 + NC1CCC(NC2CC2c2ccccc2)CC1,pIC50,[1],5.78
same,pIC50,[2],5.81
same,pIC50,[3],5.81
same,pIC50,[4],5.89
same,pIC50,[5],6.12
same,"viability, T/C","second compound 0.1 µM, first compound 0.00949 µM",115%
same,"viability, T/C","second compound 0.1 µM, first compound 0.03 µM",121%
same,"viability, T/C","second compound 0.1 µM, first compound 0.0949 µM",113%
same,"viability, T/C","second compound 0.1 µM, first compound 0.3 µM",110%
same,"viability, T/C","second compound 0.1 µM, first compound 0.949 µM",80.9%
same,"viability, T/C","second compound 0.1 µM, first compound 3 µM",17.7%
same,"viability, T/C","second compound 0.316 µM, first compound 0.00949 µM",123%
same,"viability, T/C","second compound 0.316 µM, first compound 0.03 µM",121%
same,"viability, T/C","second compound 0.316 µM, first compound 0.0949 µM",119%
same,"viability, T/C","second compound 0.316 µM, first compound 0.3 µM",109%
same,"viability, T/C","second compound 0.316 µM, first compound 0.949 µM",74.2%
same,"viability, T/C","second compound 0.316 µM, first compound 3 µM",17.2%
same,"viability, T/C","second compound 1 µM, first compound 0.00949 µM",116%
same,"viability, T/C","second compound 1 µM, first compound 0.03 µM",116%
same,"viability, T/C","second compound 1 µM, first compound 0.0949 µM",112%
same,"viability, T/C","second compound 1 µM, first compound 0.3 µM",103%
same,"viability, T/C","second compound 1 µM, first compound 0.949 µM",74%
same,"viability, T/C","second compound 1 µM, first compound 3 µM",16.7%
same,"viability, T/C","second compound 3.16 µM, first compound 0.00949 µM",107%
same,"viability, T/C","second compound 3.16 µM, first compound 0.03 µM",105%
same,"viability, T/C","second compound 3.16 µM, first compound 0.0949 µM",103%
same,"viability, T/C","second compound 3.16 µM, first compound 0.3 µM",93.6%
same,"viability, T/C","second compound 3.16 µM, first compound 0.949 µM",62%
same,"viability, T/C","second compound 3.16 µM, first compound 3 µM",15.1%
same,"viability, T/C","second compound 10 µM, first compound 0.00949 µM",85.5%
same,"viability, T/C","second compound 10 µM, first compound 0.03 µM",82.7%
same,"viability, T/C","second compound 10 µM, first compound 0.0949 µM",86.1%
same,"viability, T/C","second compound 10 µM, first compound 0.3 µM",78.1%
same,"viability, T/C","second compound 10 µM, first compound 0.949 µM",43%
same,"viability, T/C","second compound 10 µM, first compound 3 µM",9.91%
O=C(C=Cn1cnc(-c2cc(C(F)(F)F)cc(C(F)(F)F)c2)n1)NNc1cnccn1 + NC1CCC(NC2CC2c2ccccc2)CC1,pIC50,[1],7.60
same,pIC50,[2],7.69
same,pIC50,[3],7.64
same,pIC50,[4],7.79
same,pIC50,[5],7.92
same,"viability, T/C",[6],94.3%
same,"viability, T/C",[7],68.9%
same,"viability, T/C",[8],44.6%
same,"viability, T/C",[9],31.8%
same,"viability, T/C","second compound 0.1 µM, first compound 0.316 µM",21%
same,"viability, T/C","second compound 0.1 µM, first compound 1 µM",17.9%
same,"viability, T/C",[10],97.4%
same,"viability, T/C",[11],61.9%
same,"viability, T/C",[12],42.1%
same,"viability, T/C",[13],30.7%
same,"viability, T/C","second compound 0.316 µM, first compound 0.316 µM",21.2%
same,"viability, T/C","second compound 0.316 µM, first compound 1 µM",18.6%
same,"viability, T/C",[14],90.8%
same,"viability, T/C",[15],63.4%
same,"viability, T/C",[16],42.6%
same,"viability, T/C",[17],34.4%
same,"viability, T/C","second compound 1 µM, first compound 0.316 µM",21.6%
same,"viability, T/C","second compound 1 µM, first compound 1 µM",15.7%
same,"viability, T/C",[18],81%
same,"viability, T/C",[19],51.6%
same,"viability, T/C",[20],43.6%
same,"viability, T/C",[21],31.7%
same,"viability, T/C","second compound 3.16 µM, first compound 0.316 µM",20.8%
same,"viability, T/C","second compound 3.16 µM, first compound 1 µM",14.9%
same,"viability, T/C",[22],74%
same,"viability, T/C",[23],48.3%
same,"viability, T/C",[24],37.5%
same,"viability, T/C",[25],35.1%
same,"viability, T/C","second compound 10 µM, first compound 0.316 µM",19.9%
same,"viability, T/C","second compound 10 µM, first compound 1 µM",16.9%
Cn1ncnc1C1c2n[nH]c(=O)c3cc(F)cc(c23)NC1c1ccc(F)cc1 (configuration not stated) + NC1CC1c1ccc(-c2cccc(O)c2)cc1,pIC50,[1],< 7.00
same,pIC50,[2],< 7.00
same,pIC50,[3],< 7.00
same,pIC50,[4],< 7.00
same,pIC50,[5],< 7.00
same,"viability, T/C","second compound 0.1 µM, first compound 0.000316 µM",95.4%
same,"viability, T/C","second compound 0.1 µM, first compound 0.001 µM",94.4%
same,"viability, T/C",[6],95%
same,"viability, T/C",[7],91.9%
same,"viability, T/C",[8],92.4%
same,"viability, T/C",[9],89.3%
same,"viability, T/C","second compound 0.316 µM, first compound 0.000316 µM",102%
same,"viability, T/C","second compound 0.316 µM, first compound 0.001 µM",102%
same,"viability, T/C",[10],101%
same,"viability, T/C",[11],91%
same,"viability, T/C",[12],94.3%
same,"viability, T/C",[13],95.9%
same,"viability, T/C","second compound 1 µM, first compound 0.000316 µM",93.3%
same,"viability, T/C","second compound 1 µM, first compound 0.001 µM",94.5%
same,"viability, T/C",[14],90.6%
same,"viability, T/C",[15],86.9%
same,"viability, T/C",[16],81.5%
same,"viability, T/C",[17],85%
same,"viability, T/C","second compound 3.16 µM, first compound 0.000316 µM",88.4%
same,"viability, T/C","second compound 3.16 µM, first compound 0.001 µM",92.1%
same,"viability, T/C",[18],90.9%
same,"viability, T/C",[19],87.8%
same,"viability, T/C",[20],85.2%
same,"viability, T/C",[21],76.4%
same,"viability, T/C","second compound 10 µM, first compound 0.000316 µM",80.7%
same,"viability, T/C","second compound 10 µM, first compound 0.001 µM",87%
same,"viability, T/C",[22],84.3%
same,"viability, T/C",[23],83.2%
same,"viability, T/C",[24],79.8%
same,"viability, T/C",[25],74.5%
CC(C)CC(NC(=O)CNC(=O)c1cc(Cl)ccc1Cl)B1OC(=O)CC(CC(=O)O)(C(=O)O)O1 (configuration not stated),"viability, T/C",compound 0.000316 µM,108% and 107%
same,"viability, T/C",compound 0.001 µM,106% and 104%
same,"viability, T/C",compound 0.00316 µM,102% and 106%
same,"viability, T/C",compound 0.01 µM,49.1% and 64.2%
same,"viability, T/C",compound 0.0316 µM,30.4% and 36.4%
same,"viability, T/C",compound 0.1 µM,7.53% and 16.1%
same,pIC50,curve of compound,7.94 and 7.75
